In US7262199B2, “Tyrosine kinase inhibitors” (Merck & Co., Inc., priority 2002, dated 2007):

SMILES: c1ccc(-c2cnn3cc(-c4ccc(CCCN5CCOCC5)cc4)cnc23)cc1 [Compound 2-6, 6-[4-(3-morpholin-4-ylpropyl)phenyl]-3-phenylpyrazolo[1,5-a]pyrimidine]
- melting point: 147 to 149 °C
